Laboratory results: patent publication US20070191319A1, “Treatment of conditions that present with low bone mass by continuous combination therapy with selective prostaglandin ep4 receptor agonists and an estrogen” (Pfizer Inc., priority 2003, published 2007)

Tested on: ovariectomized (OVX) rat skeleton
Assay: Continuous combination therapy protocol in OVX rats, pQCT of femur
Type: in vivo, Sprague-Dawley (S-D) female rats
Conditions: 4 weeks treatment, EP4 agonist 0.3 mg/kg/d by Alzet pump, E2 0.01 mg/kg/d by pellets
Description: Prostaglandin E2 (PGE2) restores bone mass by stimulating both bone formation and bone resorption but in favor of bone formation in ovariectomized (OVX) rat skeleton. 5-(3-{2S-[3R-Hydroxy-4-(3-trifluoromethyl-phenyl)-butyl}-5-oxo-pyrrolidin-1-yl}-propyl)-thiophene-2-carboxylic acid, an EP4 receptor selective agonist, can mimic PGE2's systemic bone anabolic effects when given by daily subcutaneous injection. However, like PGE2, slow release delivery of 5-(3-{2S-[3R-hydroxy-4-(3-trifluoromethyl-phenyl)-butyl}-5-oxo-pyrrolidin-1-yl}-propyl)-thiophene-2-carboxylic acid, by Alzet pump may cause bone loss by stimulating both bone resorption and bone formation but in favor of bone resorption in OVX rat skeleton. Estrogen (17-βestradiol) inhibits bone resorption and turnover, thus preventing bone loss in OVX rats. […] Sprague-Dawley (S-D) female rats were sham-operated (n=20) or OVX (n=50) at 3.5 months of age. Three and an half months post-surgery, OVX rats were treated with either vehicle, 5-(3-{2S-[3R-hydroxy-4-(3-trifluoromethyl-phenyl)-butyl}-5-oxo-pyrrolidin-1-yl}-propyl)-thiophene-2-carboxylic acid at 0.3 mg/kg/d (by Alzet pumps in subcutaneous area, […] release rate, for duration of 14 days, replace the pumps at day 15), or 17-βestradiol (E2) at 0.01 mg/kg/d (administered by 30 day release pellets), or combined 5-(3-{2S-[3R-hydroxy-4-(3-trifluoromethyl-phenyl)-butyl}-5-oxo-pyrrolidin-1-yl}-propyl)-thiophene-2-carboxylic acid at 0.3 mg/kg/d (by Alzet pumps in subcutaneous area, […] release rate, for duration of 28 days) and 17-βestradiol (E2) at 0.01 mg/kg/d (administered by 30 day release pellets) for 4 weeks. Total mineral density and cortical bone area of distal femoral metaphysis and femoral shaft were determined by peripheral […] computerized tomography (pQCT) as described previously (Ke H. Z. et al., Lasofoxifene protects against the age-related changes in bone mass, bone strength, and total serum cholesterol in intact aged male rats. J. of Bone and Mineral Research, 2001;16:765-773).

SMILES	change in cortical bone area of distal femoral metaphysis compared with OVX controls	change in cortical bone area of femoral shaft compared with OVX controls	change in total mineral density of distal femoral metaphysis compared with OVX controls	change in total mineral density of femoral shaft compared with OVX controls
O=C(O)c1ccc(CCCN2C(=O)CC[C@@H]2CC[C@@H](O)Cc2cccc(C(F)(F)F)c2)s1 [5-(3-{2S-[3R-Hydroxy-4-(3-trifluoromethyl-phenyl)-butyl]-5-oxo-pyrrolidin-1-yl}-propyl)-thiophene-2-carboxylic acid]	−15%	no significant change	−15%	no significant change
C[C@]12CC[C@@H]3c4ccc(O)cc4CC[C@H]3[C@@H]1CC[C@@H]2O [17-βestradiol (E2), 17β-estradiol]	did not cause significant change	no significant change	did not cause significant change	no significant change
